# Assay results as given in patent US10246451B2, “Propionic acid derivatives and methods of use thereof” (Aviara Pharmaceuticals, Inc., priority 2017, dated 2019).
# pIC50: −log10 of the molar value.
# Target: α4β1 integrin (Homo sapiens, UniProt P05556+P13612)
# Test: a4b1 IC50 (inhibition of α4β1 integrin; no method described)
# Type: binding
# Sequence of α4β1 integrin (P13612 34-1032): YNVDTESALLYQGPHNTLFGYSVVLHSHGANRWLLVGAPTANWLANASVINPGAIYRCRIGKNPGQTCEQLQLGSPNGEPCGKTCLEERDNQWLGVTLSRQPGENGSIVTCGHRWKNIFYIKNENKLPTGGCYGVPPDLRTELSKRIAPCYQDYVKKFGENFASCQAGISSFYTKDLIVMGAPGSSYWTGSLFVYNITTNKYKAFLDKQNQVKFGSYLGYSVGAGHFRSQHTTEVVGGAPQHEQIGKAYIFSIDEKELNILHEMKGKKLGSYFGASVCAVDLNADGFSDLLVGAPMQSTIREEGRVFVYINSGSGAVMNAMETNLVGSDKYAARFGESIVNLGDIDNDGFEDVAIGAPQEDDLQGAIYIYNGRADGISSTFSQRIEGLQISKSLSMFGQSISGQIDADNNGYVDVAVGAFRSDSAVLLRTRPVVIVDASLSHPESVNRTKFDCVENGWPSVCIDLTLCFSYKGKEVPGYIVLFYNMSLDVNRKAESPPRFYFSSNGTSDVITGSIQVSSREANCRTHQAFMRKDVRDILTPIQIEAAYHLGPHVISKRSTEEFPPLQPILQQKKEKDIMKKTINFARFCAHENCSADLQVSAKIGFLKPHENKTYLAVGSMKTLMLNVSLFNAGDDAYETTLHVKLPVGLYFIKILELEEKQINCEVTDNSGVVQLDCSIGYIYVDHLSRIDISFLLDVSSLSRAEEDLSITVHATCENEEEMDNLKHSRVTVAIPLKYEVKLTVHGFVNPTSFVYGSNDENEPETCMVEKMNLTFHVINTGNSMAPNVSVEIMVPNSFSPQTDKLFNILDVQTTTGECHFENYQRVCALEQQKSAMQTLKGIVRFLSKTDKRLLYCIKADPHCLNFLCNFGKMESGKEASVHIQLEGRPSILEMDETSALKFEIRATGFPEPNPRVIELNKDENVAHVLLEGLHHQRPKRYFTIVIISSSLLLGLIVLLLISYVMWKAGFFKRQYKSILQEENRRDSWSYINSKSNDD
# Sequence of α4β1 integrin (P05556 21-798): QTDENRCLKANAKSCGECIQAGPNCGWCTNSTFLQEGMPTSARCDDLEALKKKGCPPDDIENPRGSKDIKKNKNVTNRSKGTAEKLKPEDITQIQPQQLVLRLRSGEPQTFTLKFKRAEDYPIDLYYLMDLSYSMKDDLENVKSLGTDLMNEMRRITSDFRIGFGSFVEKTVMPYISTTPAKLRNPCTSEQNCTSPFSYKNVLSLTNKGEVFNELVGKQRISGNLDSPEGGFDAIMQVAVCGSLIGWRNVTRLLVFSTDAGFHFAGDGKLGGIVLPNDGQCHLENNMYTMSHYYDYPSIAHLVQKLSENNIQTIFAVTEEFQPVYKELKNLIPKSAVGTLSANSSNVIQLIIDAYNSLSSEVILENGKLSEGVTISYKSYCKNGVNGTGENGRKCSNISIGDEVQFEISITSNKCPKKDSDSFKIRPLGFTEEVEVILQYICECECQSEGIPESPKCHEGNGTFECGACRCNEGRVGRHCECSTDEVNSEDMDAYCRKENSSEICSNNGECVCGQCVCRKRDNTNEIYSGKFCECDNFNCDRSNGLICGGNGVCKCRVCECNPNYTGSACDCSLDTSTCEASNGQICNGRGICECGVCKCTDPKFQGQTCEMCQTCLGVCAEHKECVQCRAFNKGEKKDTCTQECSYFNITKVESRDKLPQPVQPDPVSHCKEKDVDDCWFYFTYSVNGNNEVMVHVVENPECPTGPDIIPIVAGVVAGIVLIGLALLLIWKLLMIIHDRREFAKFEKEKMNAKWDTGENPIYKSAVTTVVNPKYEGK
row,Compound,pIC50
1,"Cc1cn(C)c(=O)c(NC(=O)NC(CC(=O)O)c2cccc(Oc3ccccc3)c2)c1O (stereo not shown) [Compound 1-21, sodium 3-(3-(1,5-dimethyl-4-oxido-2-oxo-1,2-dihydropyridin-3-yl)ureido)-3-(3-phenoxyphenyl)propanoate]",> 6.70
2,"Cc1cn(C)c(=O)c(NC(=O)N[C@@H](CC(=O)O)c2cccc(Oc3ccccc3)c2)c1O [Compound 1-22, sodium (S)-3-(3-(1,5-dimethyl-4-oxido-2-oxo-1,2-dihydropyridin-3-yl)ureido)-3-(3-phenoxyphenyl)propanoate]",> 6.70
3,"Cc1cn(C)c(=O)c(NC(=O)N[C@@H](CC(=O)O)c2cccc(Cc3ccccc3)c2)c1O [Compound 1-23, sodium (S)-3-(3-benzylphenyl)-3-(3-(1,5-dimethyl-4-oxido-2-oxo-1,2-dihydropyridin-3-yl)ureido)propanoate]",> 6.70
4,"Cc1cn(C)c(=O)c(NC(=O)NC(CC(=O)O)c2cccc(Cc3ccccc3Cl)c2)c1O (stereo not shown) [Compound 1-24, sodium 3-(3-(2-chlorobenzyl)phenyl)-3-(3-(1,5-dimethyl-4-oxido-2-oxo-1,2-dihydropyridin-3-yl)ureido)propanoate]",> 6.70
5,"Cc1cn(C)c(=O)c(NC(=O)NC(CC(=O)O)c2cccc(Cc3cccc(Cl)c3)c2)c1O (stereo not shown) [Compound 1-25, sodium 3-(3-(3-chlorobenzyl)phenyl)-3-(3-(1,5-dimethyl-4-oxido-2-oxo-1,2-dihydropyridin-3-yl)ureido)propanoate]",> 6.70
6,"Cc1cn(C)c(=O)c(NC(=O)NC(CC(=O)O)c2cccc(Cc3ccc(Cl)cc3)c2)c1O (stereo not shown) [Compound 1-26, sodium 3-(3-(4-chlorobenzyl)phenyl)-3-(3-(1,5-dimethyl-4-oxido-2-oxo-1,2-dihydropyridin-3-yl)ureido)propanoate]",< 6.70
7,"Cc1cn(C)c(=O)c(NC(=O)N[C@@H](CC(=O)O)c2ccc(Cc3ccccc3Cl)cc2)c1O [Compound 1-27, sodium (S)-3-(4-(2-chlorobenzyl)phenyl)-3-(3-(4-hydroxy-1,5-dimethyl-2-oxo-1,2-dihydropyridin-3-yl)ureido)propanoate]",< 6.70
8,"Cc1ccccc1Cc1cccc([C@H](CC(=O)O)NC(=O)Nc2c(O)c(C)cn(C)c2=O)c1 [Compound 1-28, sodium (S)-3-(3-(1,5-dimethyl-4-oxido-2-oxo-1,2-dihydropyridin-3-yl)ureido)-3-(3-(2-methylbenzyl)phenyl)propanoate]",> 7.70

# The remaining lines, values ahead:
row,pIC50,Compound
1,> 6.70,"Cc1cccc(Cc2cccc([C@H](CC(=O)O)NC(=O)Nc3c(O)c(C)cn(C)c3=O)c2)c1 [Compound 1-29, sodium (S)-3-(3-(1,5-dimethyl-4-oxido-2-oxo-1,2-dihydropyridin-3-yl)ureido)-3-(3-(3-methylbenzyl)phenyl)propanoate]"
2,> 6.70,"Cc1ccc(Cc2cccc([C@H](CC(=O)O)NC(=O)Nc3c(O)c(C)cn(C)c3=O)c2)cc1 [Compound 1-30, sodium (S)-3-(3-(1,5-dimethyl-4-oxido-2-oxo-1,2-dihydropyridin-3-yl)ureido)-3-(3-(4-methylbenzyl)phenyl)propanoate]"
3,> 6.70,"COc1ccccc1Oc1ccc([C@H](CC(=O)O)NC(=O)Nc2c(O)cc(C)n(C)c2=O)cc1 [Compound 2-11, sodium (S)-3-(3-(1,6-dimethyl-4-oxido-2-oxo-1,2-dihydropyridin-3-yl)ureido)-3-(4-(2-methoxyphenoxy)phenyl)propanoate]"
4,> 6.70,"COc1cccc(Oc2ccc([C@H](CC(=O)O)NC(=O)Nc3c(O)cc(C)n(C)c3=O)cc2)c1 [Compound 2-12, sodium (S)-3-(3-(1,6-dimethyl-4-oxido-2-oxo-1,2-dihydropyridin-3-yl)ureido)-3-(4-(3-methoxyphenoxy)phenyl)propanoate]"
5,> 7.70,"Cc1ccccc1Cc1cccc([C@H](CC(=O)O)NC(=O)Nc2c(O)cc(C)n(C)c2=O)c1 [Compound 2-14, sodium (S)-3-(3-(1,6-dimethyl-4-oxido-2-oxo-1,2-dihydropyridin-3-yl)ureido)-3-(3-(2-methylbenzyl)phenyl)propanoate]"
